Measurements taken from the CheMixHub viscosity set.
Several values for one entry are separate records, joined by “and”; a condition that tells them apart may be missing. Identical values can stand only once.

Test: xn = mol fraction of the nth substance listed

C1COCCO1 + O
Conditions | viscosity
293.15 K, 101.3 kPa, x2 = 0.0459 | 1.306 mPa·s
293.15 K, 101.3 kPa, x2 = 0.09407 | 1.32 mPa·s
293.15 K, 101.3 kPa, x2 = 0.2053 | 1.399 mPa·s and 1.4 mPa·s
293.15 K, 101.3 kPa, x2 = 0.3758 | 1.621 mPa·s and 1.619 mPa·s
293.15 K, 101.3 kPa, x2 = 0.5701 | 1.982 mPa·s and 1.981 mPa·s
293.15 K, 101.3 kPa, x2 = 0.7952 | 2.264 mPa·s and 2.263 mPa·s
293.15 K, 101.3 kPa, x2 = 0.8661 | 2.06 mPa·s
293.15 K, 101.3 kPa, x2 = 0.9391 | 1.577 mPa·s and 1.576 mPa·s
293.15 K, 101.3 kPa, x2 = 0.9742 | 1.258 mPa·s and 1.259 mPa·s
293.15 K, 101.33 kPa, x1 = 0.0222 | 1.221 mPa·s
293.15 K, 101.33 kPa, x1 = 0.0486 | 1.464 mPa·s
293.15 K, 101.33 kPa, x1 = 0.0806 | 1.728 mPa·s
293.15 K, 101.33 kPa, x1 = 0.12 | 1.984 mPa·s
293.15 K, 101.33 kPa, x1 = 0.143 | 2.092 mPa·s
293.15 K, 101.33 kPa, x1 = 0.17 | 2.183 mPa·s
293.15 K, 101.33 kPa, x1 = 0.2 | 2.246 mPa·s
293.15 K, 101.33 kPa, x1 = 0.235 | 2.268 mPa·s
293.15 K, 101.33 kPa, x1 = 0.25 | 2.266 mPa·s
293.15 K, 101.33 kPa, x1 = 0.275 | 2.252 mPa·s
293.15 K, 101.33 kPa, x1 = 0.323 | 2.185 mPa·s
293.15 K, 101.33 kPa, x1 = 0.334 | 2.151 mPa·s
293.15 K, 101.33 kPa, x1 = 0.38 | 2.072 mPa·s
293.15 K, 101.33 kPa, x1 = 0.45 | 1.927 mPa·s
293.15 K, 101.33 kPa, x1 = 0.5 | 1.817 mPa·s
293.15 K, 101.33 kPa, x1 = 0.537 | 1.758 mPa·s
293.15 K, 101.33 kPa, x1 = 0.648 | 1.569 mPa·s
293.15 K, 101.33 kPa, x1 = 0.716 | 1.478 mPa·s
293.15 K, 101.33 kPa, x1 = 0.795 | 1.396 mPa·s
293.15 K, 101.33 kPa, x1 = 0.846 | 1.349 mPa·s
293.15 K, 101.33 kPa, x1 = 0.918 | 1.312 mPa·s
298 K, 101 kPa, x2 = 0.5236 | 1.647 mPa·s
298 K, 101 kPa, x2 = 0.6752 | 1.886 mPa·s
298 K, 101 kPa, x2 = 0.7636 | 1.965 mPa·s
298 K, 101 kPa, x2 = 0.88 | 1.701 mPa·s
298 K, 101 kPa, x2 = 0.9514 | 1.271 mPa·s
298.15 K, 101 kPa, x1 = 0.141 | 1.784 mPa·s
298.15 K, 101 kPa, x1 = 0.271 | 1.923 mPa·s
298.15 K, 101.3 kPa, x2 = 0.0459 | 1.196 mPa·s
298.15 K, 101.3 kPa, x2 = 0.09407 | 1.207 mPa·s
298.15 K, 101.3 kPa, x2 = 0.2053 | 1.275 mPa·s and 1.274 mPa·s
298.15 K, 101.3 kPa, x2 = 0.3758 | 1.458 mPa·s
298.15 K, 101.3 kPa, x2 = 0.5701 | 1.761 mPa·s
298.15 K, 101.3 kPa, x2 = 0.7952 | 1.976 mPa·s and 1.975 mPa·s
298.15 K, 101.3 kPa, x2 = 0.8661 | 1.796 mPa·s
298.15 K, 101.3 kPa, x2 = 0.9391 | 1.38 mPa·s and 1.381 mPa·s
298.15 K, 101.3 kPa, x2 = 0.9742 | 1.109 mPa·s and 1.108 mPa·s
298.15 K, 101.33 kPa, x1 = 0.0222 | 1.076 mPa·s
298.15 K, 101.33 kPa, x1 = 0.0486 | 1.283 mPa·s
298.15 K, 101.33 kPa, x1 = 0.0806 | 1.508 mPa·s
298.15 K, 101.33 kPa, x1 = 0.12 | 1.728 mPa·s
298.15 K, 101.33 kPa, x1 = 0.143 | 1.822 mPa·s
298.15 K, 101.33 kPa, x1 = 0.17 | 1.901 mPa·s
298.15 K, 101.33 kPa, x1 = 0.2 | 1.957 mPa·s
298.15 K, 101.33 kPa, x1 = 0.235 | 1.98 mPa·s
298.15 K, 101.33 kPa, x1 = 0.25 | 1.983 mPa·s
298.15 K, 101.33 kPa, x1 = 0.275 | 1.96 mPa·s
298.15 K, 101.33 kPa, x1 = 0.323 | 1.917 mPa·s
298.15 K, 101.33 kPa, x1 = 0.334 | 1.894 mPa·s
298.15 K, 101.33 kPa, x1 = 0.38 | 1.831 mPa·s
298.15 K, 101.33 kPa, x1 = 0.45 | 1.715 mPa·s
298.15 K, 101.33 kPa, x1 = 0.5 | 1.623 mPa·s
298.15 K, 101.33 kPa, x1 = 0.537 | 1.572 mPa·s
298.15 K, 101.33 kPa, x1 = 0.648 | 1.414 mPa·s
298.15 K, 101.33 kPa, x1 = 0.716 | 1.336 mPa·s
298.15 K, 101.33 kPa, x1 = 0.795 | 1.274 mPa·s
298.15 K, 101.33 kPa, x1 = 0.846 | 1.23 mPa·s
298.15 K, 101.33 kPa, x1 = 0.918 | 1.2 mPa·s
298.15 K, 101.33 kPa, x2 = 0.1129 | 1.222 mPa·s
298.15 K, 101.33 kPa, x2 = 0.21 | 1.291 mPa·s
298.15 K, 101.33 kPa, x2 = 0.3108 | 1.384 mPa·s
298.15 K, 101.33 kPa, x2 = 0.4096 | 1.51 mPa·s
298.15 K, 101.33 kPa, x2 = 0.4986 | 1.629 mPa·s
298.15 K, 101.33 kPa, x2 = 0.6059 | 1.797 mPa·s
298.15 K, 101.33 kPa, x2 = 0.6983 | 1.913 mPa·s
298.15 K, 101.33 kPa, x2 = 0.8288 | 1.857 mPa·s
298.15 K, 101.33 kPa, x2 = 0.9021 | 1.57 mPa·s
303.1 K, 101 kPa, x2 = 0.228 | 1.147 mPa·s
303.1 K, 101 kPa, x2 = 0.2741 | 1.174 mPa·s
303.1 K, 101 kPa, x2 = 0.4187 | 1.261 mPa·s
303.1 K, 101 kPa, x2 = 0.7038 | 1.709 mPa·s
303.1 K, 101 kPa, x2 = 0.8099 | 1.733 mPa·s
303.1 K, 101 kPa, x2 = 0.8346 | 1.661 mPa·s
303.1 K, 101 kPa, x2 = 0.8791 | 1.543 mPa·s
303.1 K, 101 kPa, x2 = 0.9194 | 1.35 mPa·s
303.1 K, 101 kPa, x2 = 0.9508 | 1.162 mPa·s
303.1 K, 101 kPa, x2 = 0.9786 | 0.968 mPa·s
303.15 K, 101.3 kPa, x2 = 0.0459 | 1.098 mPa·s
303.15 K, 101.3 kPa, x2 = 0.09407 | 1.108 mPa·s and 1.107 mPa·s
